Experiment: Foliar penetration of C14-labeled ethaboxam into cucumber
Format: in vivo
Details: cucumber foliage, 24 hours after spotting; result in words
Description: In order to investigate the relationship of the concentration of polyoxyalkylene alkyl ether and the foliar penetration of ethaboxam, foliar penetration experiment was carried out using radioisotope [C^14]-labeled ethaboxam as follows.
Cucumber seeds were sown in a horticultural bed soil of pots having a diameter of 6 cm and grown under glass for 3 weeks. 10 mg of the formulation prepared in the comparative example was diluted in 10 ml of tap water. 20 μl of the diluted solution was taken and thereto was added 1.0 μCi of ethaboxam labeled with C^14(81.7 μCi/mg) to prepare the diluted ethaboxam formulation labeled with C^14. […]
The plants were cut at a distance of 1 cm from the bottom of soil and the cuts were introduced into 250 ml Erlenmeyer flaska 50 ml of the mixed solution of acetonitrile and distilled water(volume ratio=1:4) was added thereto and then, the flask was plugged and shaken for 1 minute. Radioactivity of C^14-ethaboxam in the solution was measured with a liquid scintillation counter and the residue was combusted with a sample oxidizer to collect C^14-carbon dioxide, which was analyzed with the liquid scintillation counter.
Foliar penetration of ethaboxam is calculated by subtracting radioactivity in the solution from the total radioactivity, which is identical with radioactivity in the residue.

With `CCNc1nc(CC)c(C(=O)NC(C#N)c2cccs2)s1` (stereo not drawn) [ethaboxam, N-(α-cyano-2-thenyl)-4-ethyl-2-(ethylamino)-5-thiazolecarboxamide] the “foliar penetration of ethaboxam” value was “hardly penetrated into plants in the absence of adjuvant”.

— patent publication US6740671B2 (priority 2000, dated 2004)
